Results taken from patent publication US20080255082A1, “Hair and/or Scalp Care Compositions Incorporating Terpenoid Compounds” (priority 2005, published 2008).
Read-outs that look alike come from different tables or passages of the source.

Columns and labels:
human recombinant CB1 = target: T1, human recombinant CB1 (Homo sapiens, UniProt P21554); assay: CB1R radioligand binding on membranes from HEK293 cells over-expressing CB1
T1 construct: purchased Perkin-Elmer; host or cells: HEK293
Description: (§1) Terpenoid compounds of formula (I), (II) or (III) above were evaluated for their ability to activate Cannabinoid Receptor 1 (CB1R) and Cannabinoid Receptor 2 (CB2R). Their ClogP values were also measured.
CB1R experiments were performed using membranes from HEK293 cells over-expressing human recombinant CB1, as described by the manufacturer (Perkin-Elmer) and using [3H]CP-55,490 as the radioligand.
(§2) Data of active compounds are expressed in Ki (mM) and are means ±SEM of n=3 determinations.
(§3) The values that are stated for each of the compounds is an EC50 value. This is defined as the molar concentration of an agonist, which produces 50% of the maximum possible response for that agonist. The values documented are in micromolar units.

human recombinant CB2 = target: T2, human recombinant CB2 (Homo sapiens, UniProt P34972); assay: CB2R radioligand binding on membranes from HEK293 cells over-expressing CB2
T2 construct: purchased Perkin-Elmer; host or cells: HEK293
Description: as §1
CB2R experiments were performed using membranes from HEK293 cells over-expressing human recombinant CB2, as described by the manufacturer (Perkin-Elmer), and using [3H]CP-55,495 as the radioligand.
as §2, §3

[1] = HEK293 membranes, [3H]CP-55,490 radioligand, means of n=3, read-out: CB1R Activity
[2] = HEK293 membranes, [3H]CP-55,495 radioligand, means of n=3, dash = greater than 25 micromolar, read-out: CB2R Activity

T1 sequence (P21554 whole entry): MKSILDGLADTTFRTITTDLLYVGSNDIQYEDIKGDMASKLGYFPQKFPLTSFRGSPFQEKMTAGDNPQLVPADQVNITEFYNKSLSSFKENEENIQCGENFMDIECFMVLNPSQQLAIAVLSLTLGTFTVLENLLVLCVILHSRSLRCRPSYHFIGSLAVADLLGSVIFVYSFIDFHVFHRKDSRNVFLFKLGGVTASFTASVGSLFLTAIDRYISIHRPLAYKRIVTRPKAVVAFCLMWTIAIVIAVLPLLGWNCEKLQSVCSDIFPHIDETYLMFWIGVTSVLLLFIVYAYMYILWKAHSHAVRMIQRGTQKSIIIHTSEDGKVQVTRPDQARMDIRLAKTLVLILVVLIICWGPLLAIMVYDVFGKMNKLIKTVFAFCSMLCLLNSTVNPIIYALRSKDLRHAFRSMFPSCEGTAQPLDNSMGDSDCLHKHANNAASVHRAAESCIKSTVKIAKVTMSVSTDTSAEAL
T2 sequence (P34972 whole entry): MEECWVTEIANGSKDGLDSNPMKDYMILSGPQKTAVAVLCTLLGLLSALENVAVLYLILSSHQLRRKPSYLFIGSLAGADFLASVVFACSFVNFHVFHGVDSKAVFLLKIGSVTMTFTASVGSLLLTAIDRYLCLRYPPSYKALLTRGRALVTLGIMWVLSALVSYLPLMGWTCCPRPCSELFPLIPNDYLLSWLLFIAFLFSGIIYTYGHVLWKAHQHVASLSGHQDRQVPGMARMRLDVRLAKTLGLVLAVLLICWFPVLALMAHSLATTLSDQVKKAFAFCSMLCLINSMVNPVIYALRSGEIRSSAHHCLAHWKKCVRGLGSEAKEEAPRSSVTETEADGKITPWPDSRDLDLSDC

Compound | activation of Cannabinoid Receptor 1 (CB1R), in words (human recombinant CB1) | EC50 (human recombinant CB1; [1]) | activation of Cannabinoid Receptor 2 (CB2R), in words (human recombinant CB2) | EC50 (human recombinant CB2; [2]) | EC50 (human recombinant CB1) | EC50 (human recombinant CB2)
isophaseollin [Example 2] | can activate | 15.5 µM | can activate | 22.3 µM | – | –
C=C(C)C1Cc2c(cc(O)c3c2OC2C(O)Oc4cc(OC)c(OC)cc4C2C3=O)O1 (centres unmarked) [Example 1, 6-hydroxysumatrol] | – | 17.1 µM | – | > 25 µM | – | –
COc1cc(C2Oc3ccc(C4CC(=O)c5c(O)cc(O)cc5O4)cc3OC2CO)ccc1O (centres unmarked) [Example 3, silandrin] | – | – | – | – | 22 µM | > 25 µM
